Measured values published in US20240368120A1 (Terns Pharmaceuticals, Inc., priority 2023, published 2024).

Biological target: T1, human GLP-1R receptor (Homo sapiens, UniProt P43220)
T1 construct: expressed in transfected cells
Test: GLP-1R low expression cell assay (cAMP TR-FRET, CHO-K1_hGLP-1Rlow_clone10 cells)
Assay type: cell-based
Settings: for EC50: cAMP TR-FRET, 30 min at 25° C.; for Emax: maximum activation relative to control GLP-1 peptide agonist
Summary of the method: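 CHO-K1 cells stably expressing low surface human GLP-1R (clone10), 1,000 cells/well, exposed to 10-point 3-fold compound dilutions for 30 min at 25 °C. cAMP measured by TR-FRET (Eu-cAMP tracer/ULight-anti-cAMP, 15 min). EC50 from Hill fit of duplicate percent activation relative to a parallel GLP-1 control agonist.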

T1 sequence (P43220 24-463): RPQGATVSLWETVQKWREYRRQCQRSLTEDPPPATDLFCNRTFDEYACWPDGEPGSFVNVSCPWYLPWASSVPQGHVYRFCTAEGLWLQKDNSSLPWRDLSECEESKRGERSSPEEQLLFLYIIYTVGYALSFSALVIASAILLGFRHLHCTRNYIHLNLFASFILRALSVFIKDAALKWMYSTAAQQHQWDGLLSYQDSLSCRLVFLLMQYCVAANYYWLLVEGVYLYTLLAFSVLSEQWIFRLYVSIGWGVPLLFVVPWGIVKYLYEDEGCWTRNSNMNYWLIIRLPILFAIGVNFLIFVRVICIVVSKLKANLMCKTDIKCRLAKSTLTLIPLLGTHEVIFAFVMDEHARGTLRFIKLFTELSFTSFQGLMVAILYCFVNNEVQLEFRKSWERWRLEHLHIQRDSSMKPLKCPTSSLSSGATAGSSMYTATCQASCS

SMILES | EC50 | Emax
CO[C@H]1C[C@@H](Oc2cc(C(=O)O)cc3c2nc(CN2CCC(c4cccc(OCc5ccc(C#N)cc5F)n4)CC2)n3C)C1 [Compound 318, 2-((4-(6-((4-Cyano-2-fluorobenzyl)oxy)pyridin-2-yl)piperidin-1-yl)methyl)-4-((1s,3s)-3-methoxycyclobutoxy)-1-methyl-1H-benzo[d]imidazole-6-carboxylic acid] | 100 to 1000 nM | > 85%
COc1cc(C(=O)O)cc2c1nc(CN1CCC(c3cccc(OCc4cc(F)c(Cl)cc4F)n3)CC1)n2C [Compound 272, 2-((4-(6-((4-Chloro-2,5-difluorobenzyl)oxy)pyridin-2-yl)piperidin-1-yl)methyl)-4-methoxy-1-methyl-1H-benzo[d]imidazole-6-carboxylic acid] | < 10 nM | > 85%
COc1cc(C#CC(=O)O)cc2c1nc(CN1CCC(c3cccc(OCc4ccc(Cl)cc4F)n3)CC1)n2C[C@@H]1CCO1 [Compound 257, (S)-3-(2-((4-(6-((4-Chloro-2-fluorobenzyl)oxy)pyridin-2-yl)piperidin-1-yl)methyl)-4-methoxy-1-(oxetan-2-ylmethyl)-1H-benzo[d]imidazol-6-yl) propiolic acid] | 10 to 100 nM | 50 to 85%
Cn1c(N(C)[C@H]2CC[C@@H](c3cccc(OCc4ccc(C#N)cc4F)n3)CC2)nc2c(OC(F)F)cc(C(=O)O)cc21 [Compound 142, 2-(((1s,4s)-4-(6-((4-Cyano-2-fluorobenzyl)oxy)pyridin-2-yl)cyclohexyl)(methyl)amino)-4-(difluoromethoxy)-1-methyl-1H-benzo[d]imidazole-6-carboxylic acid] | > 1000 nM | > 85%
Cn1c(CN2CCC(c3cccc4c3O[C@@H](c3ccc(Cl)cc3F)CO4)CC2)nc2c(OC(F)F)cc(C(=O)O)cc21 [Compound 334, (S)-2-((4-(3-(4-Chloro-2-fluorophenyl)-2,3-dihydrobenzo[b][1,4]dioxin-5-yl)piperidin-1-yl)methyl)-4-(difluoromethoxy)-1-methyl-1H-benzo[d]imidazole-6-carboxylic acid] | 10 to 100 nM | > 85%
C[C@]1(c2ccc(Cl)cn2)Oc2cccc(C3CCN(Cc4nc5cc(C(=O)O)c6c(c5n4C[C@@H]4CCO4)OCCO6)CC3)c2O1 [Compound 99, 2-((4-((S)-2-(5-Chloropyridin-2-yl)-2-methylbenzo[d][1,3]dioxol-4-yl)piperidin-1-yl)methyl)-1-(((S)-oxetan-2-yl)methyl)-7,8-dihydro-1H-[1,4]dioxino[2′,3′:3,4]benzo[1,2-d]imidazole-5-carboxylic acid] | > 1000 nM | > 85%
O=C(O)c1ccc2c(nc(CN3CCC(c4cccc(OCc5ccc(Cl)cc5F)n4)CC3)n2C[C@@H]2CCO2)c1OC(F)F [Compound 191, (S)-2-((4-(6-((4-chloro-2-fluorobenzyl)oxy)pyridin-2-yl)piperidin-1-yl)methyl)-4-(difluoromethoxy)-1-(oxetan-2-ylmethyl)-1H-benzo[d]imidazole-5-carboxylic acid] | 100 to 1000 nM | > 85%
COc1cc(-c2nnn[nH]2)cc2c1nc(CN1CCC(c3cccc(OCc4ccc(Cl)cc4F)n3)CC1)n2C[C@@H]1CCO1 [Compound 279, (S)-2-((4-(6-((4-Chloro-2-fluorobenzyl)oxy)pyridin-2-yl)piperidin-1-yl)methyl)-4-methoxy-1-(oxetan-2-ylmethyl)-6-(1H-tetrazol-5-yl)-1H-benzo[d]imidazole] | < 10 nM | 50 to 85%
CC(CO)Oc1cc(C(=O)O)cc2c1nc(CN1CCC(c3cccc(OCc4ccc(Cl)cc4F)n3)CC1)n2C (stereo not shown) [Compound 320, 2-((4-(6-((4-Chloro-2-fluorobenzyl)oxy)pyridin-2-yl)piperidin-1-yl)methyl)-4-((1-hydroxypropan-2-yl)oxy)-1-methyl-1H-benzo[d]imidazole-6-carboxylic acid] | 10 to 100 nM | > 85%
COc1nc(C(=O)O)cc2c1nc(CN1CCC(c3cccc(OCc4ccc(Cl)cc4F)n3)CC1)n2C [Compound 380, 2-((4-(6-((4-Chloro-2-fluorobenzyl)oxy)pyridin-2-yl)piperidin-1-yl)methyl)-4-methoxy-1-methyl-1H-imidazo[4,5-c]pyridine-6-carboxylic acid] | 10 to 100 nM | > 85%
Cn1c(CN2CCC(c3cccc(OCc4ccc(Cl)cc4F)n3)CC2)nc2ccc(C(=O)O)c(O)c21 [Compound 341, 2-((4-(6-((4-Chloro-2-fluorobenzyl)oxy)pyridin-2-yl)piperidin-1-yl)methyl)-7-hydroxy-1-methyl-1H-benzo[d]imidazole-6-carboxylic acid] | 100 to 1000 nM | > 85%
COc1cc(C(=O)O)cc2c1nc(CN1CCC(c3cccc(OCc4ccc(C#N)cc4F)n3)CC1)n2C(F)F [Compound 147, 2-((4-(6-((4-Cyano-2-fluorobenzyl)oxy)pyridin-2-yl)piperidin-1-yl)methyl)-1-(difluoromethyl)-4-methoxy-1H-benzo[d]imidazole-6-carboxylic acid] | 100 to 1000 nM | > 85%
Cn1c(CN2CCC(c3cccc(OCc4ccc(Cl)cc4F)n3)CC2)nc2c(OC(F)F)cc(NCC(=O)O)cc21 [Compound 255, (2-((4-(6-((4-chloro-2-fluorobenzyl)oxy)pyridin-2-yl)piperidin-1-yl)methyl)-4-(difluoromethoxy)-1-methyl-1H-benzo[d]imidazol-6-yl)glycine] | 100 to 1000 nM | 50 to 85%
COc1cc(C(=O)O)cc2nc(CN3CCC(c4cccc(OCc5ccc(Cl)cc5F)n4)CC3)n(CF)c12 [Compound 192, 2-((4-(6-((4-Chloro-2-fluorobenzyl)oxy)pyridin-2-yl)piperidin-1-yl)methyl)-1-(fluoromethyl)-7-methoxy-1H-benzo[d]imidazole-5-carboxylic acid] | > 1000 nM | 50 to 85%
CC(F)(F)c1cc(C(=O)O)cc2c1nc(CN1CCC(c3cccc4c3O[C@@](C)(c3ccc(Cl)cn3)O4)CC1)n2C[C@@H]1CCO1 [Compound 386, 2-((4-((S)-2-(5-Chloropyridin-2-yl)-2-methylbenzo[d][1,3]dioxol-4-yl)piperidin-1-yl)methyl)-4-(1,1-difluoroethyl)-1-(((S)-oxetan-2-yl)methyl)-1H-benzo[d]imidazole-6-carboxylic acid] | 10 to 100 nM | > 85%
CN1C(=O)[C@@H](c2ccc(Cl)cc2F)Oc2c(C3CCN(Cc4nc5c(OC(F)F)cc(C(=O)O)cc5n4C)CC3)cccc21 [Compound 240, (R)-2-((4-(2-(4-chloro-2-fluorophenyl)-4-methyl-3-oxo-3,4-dihydro-2H-benzo[b][1,4]oxazin-8-yl)piperidin-1-yl)methyl)-4-(difluoromethoxy)-1-methyl-1H-benzo[d]imidazole-6-carboxylic acid] | > 1000 nM | < 25%
Cn1c(CN2CCC(n3nccc3OCc3ccc(Cl)cc3F)CC2)nc2c(OC(F)F)cc(C(=O)O)cc21 [Compound 200, 2-((4-(5-((4-Chloro-2-fluorobenzyl)oxy)-1H-pyrazol-1-yl)piperidin-1-yl)methyl)-4-(difluoromethoxy)-1-methyl-1H-benzo[d]imidazole-6-carboxylic acid] | > 1000 nM | > 85%
